Measurements: ChEMBL document CHEMBL5291721, “A preclinical secondary pharmacology resource illuminates target-adverse drug reaction associations of marketed drugs” (Nat Commun, 2023)
*1 amine or outer side, *2 acyl side, *3 side chain or, on linkers, in order; H or OH if unused. Where a SMILES comes first, the peptide text is derived from it. Bridges are numbered along the chain shown (N, C = ends). [ ]: non-standard residue; d: D form. The star is where a group is joined. hTyr(3S-OH,4S-OH,3'-OSO3H) = N[C@H](C(=O)O)[C@H](O)[C@@H](O)c1ccc(O)c(OS(=O)(=O)O)c1; Orn(4R-OH,5R-OH) = O=C([C@H](C[C@@H](O)[C@@H](O)N[*:3])N[*:1])[*:2]; Pro(3S-OH,4S-Me) = C[C@H]1CN[C@H](C(=O)O)[C@H]1O; X1 = CCCCCOc1ccc(-c2cc(-c3ccc(C(=O)*)cc3)no2)cc1; Gln(3R-OH) = NC(=O)C[C@@H](O)[C@H](N)C(=O)O; Hyp = O=C(O)[C@@H]1C[C@@H](O)CN1

Experiments:
[1] = biological target: Gamma-aminobutyric acid receptor subunit alpha-1/alpha-2/beta-2/gamma-2 (Homo sapiens, UniProt P14867+P18507+P47869+P47870); type: protein-complex assay
Chain of Gamma-aminobutyric acid receptor subunit alpha-1/alpha-2/beta-2/gamma-2 (P14867 whole entry): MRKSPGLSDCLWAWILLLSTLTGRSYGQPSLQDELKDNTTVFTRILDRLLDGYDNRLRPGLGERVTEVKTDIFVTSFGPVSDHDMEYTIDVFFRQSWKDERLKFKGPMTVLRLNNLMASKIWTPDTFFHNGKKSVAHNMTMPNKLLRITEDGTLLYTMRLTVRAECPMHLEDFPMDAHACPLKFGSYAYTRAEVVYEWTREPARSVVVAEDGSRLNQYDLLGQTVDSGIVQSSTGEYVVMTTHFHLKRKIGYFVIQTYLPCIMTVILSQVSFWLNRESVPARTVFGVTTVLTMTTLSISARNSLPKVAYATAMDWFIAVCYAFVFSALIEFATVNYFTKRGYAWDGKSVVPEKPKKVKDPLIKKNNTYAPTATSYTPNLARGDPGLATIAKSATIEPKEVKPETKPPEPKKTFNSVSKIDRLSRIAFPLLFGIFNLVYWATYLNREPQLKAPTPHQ
Chain of Gamma-aminobutyric acid receptor subunit alpha-1/alpha-2/beta-2/gamma-2 (P47870 whole entry): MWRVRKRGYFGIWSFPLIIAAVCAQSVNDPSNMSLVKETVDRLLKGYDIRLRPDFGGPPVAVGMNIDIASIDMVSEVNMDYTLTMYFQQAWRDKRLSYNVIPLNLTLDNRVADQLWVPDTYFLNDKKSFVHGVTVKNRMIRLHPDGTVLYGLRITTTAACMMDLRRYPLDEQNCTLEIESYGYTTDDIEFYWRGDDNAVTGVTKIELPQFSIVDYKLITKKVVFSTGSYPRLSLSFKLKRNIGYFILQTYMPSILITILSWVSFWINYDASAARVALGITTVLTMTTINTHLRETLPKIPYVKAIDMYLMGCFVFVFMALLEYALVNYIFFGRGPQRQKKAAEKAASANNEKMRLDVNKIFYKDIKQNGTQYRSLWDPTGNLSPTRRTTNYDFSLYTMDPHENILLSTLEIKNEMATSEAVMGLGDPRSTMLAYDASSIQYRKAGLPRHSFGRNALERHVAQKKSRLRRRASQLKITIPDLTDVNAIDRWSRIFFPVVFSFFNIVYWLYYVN
Chain of Gamma-aminobutyric acid receptor subunit alpha-1/alpha-2/beta-2/gamma-2 (P18507 whole entry): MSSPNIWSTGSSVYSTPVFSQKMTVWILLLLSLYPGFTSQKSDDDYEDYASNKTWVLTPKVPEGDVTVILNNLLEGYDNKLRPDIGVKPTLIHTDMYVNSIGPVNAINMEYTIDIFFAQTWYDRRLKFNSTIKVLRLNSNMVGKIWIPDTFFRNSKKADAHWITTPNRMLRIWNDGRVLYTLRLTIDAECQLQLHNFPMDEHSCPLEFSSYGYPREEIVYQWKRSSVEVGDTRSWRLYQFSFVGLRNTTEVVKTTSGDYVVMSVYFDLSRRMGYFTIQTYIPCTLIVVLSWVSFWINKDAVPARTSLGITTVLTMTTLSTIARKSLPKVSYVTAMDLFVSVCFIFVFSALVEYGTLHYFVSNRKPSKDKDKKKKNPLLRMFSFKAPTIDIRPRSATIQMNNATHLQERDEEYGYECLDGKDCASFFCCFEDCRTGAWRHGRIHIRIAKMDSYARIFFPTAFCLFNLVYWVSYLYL
Chain of Gamma-aminobutyric acid receptor subunit alpha-1/alpha-2/beta-2/gamma-2 (P47869 whole entry): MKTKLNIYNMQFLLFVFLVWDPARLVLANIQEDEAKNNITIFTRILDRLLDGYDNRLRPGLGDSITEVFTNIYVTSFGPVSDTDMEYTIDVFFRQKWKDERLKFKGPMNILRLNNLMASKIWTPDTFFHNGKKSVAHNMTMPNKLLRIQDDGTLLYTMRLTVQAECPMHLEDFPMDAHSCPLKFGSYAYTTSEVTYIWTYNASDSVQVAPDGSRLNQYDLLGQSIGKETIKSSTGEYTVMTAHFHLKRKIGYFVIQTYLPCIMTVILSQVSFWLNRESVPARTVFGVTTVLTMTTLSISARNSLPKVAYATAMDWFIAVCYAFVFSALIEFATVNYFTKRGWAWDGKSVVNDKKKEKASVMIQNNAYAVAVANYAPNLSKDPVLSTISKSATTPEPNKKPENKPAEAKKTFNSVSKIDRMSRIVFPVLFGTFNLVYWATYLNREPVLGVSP

[2] = biological target: T1, Muscarinic acetylcholine receptor M1 (Homo sapiens, UniProt P11229); type: functional, cell-based
T1 sequence (P11229 whole entry): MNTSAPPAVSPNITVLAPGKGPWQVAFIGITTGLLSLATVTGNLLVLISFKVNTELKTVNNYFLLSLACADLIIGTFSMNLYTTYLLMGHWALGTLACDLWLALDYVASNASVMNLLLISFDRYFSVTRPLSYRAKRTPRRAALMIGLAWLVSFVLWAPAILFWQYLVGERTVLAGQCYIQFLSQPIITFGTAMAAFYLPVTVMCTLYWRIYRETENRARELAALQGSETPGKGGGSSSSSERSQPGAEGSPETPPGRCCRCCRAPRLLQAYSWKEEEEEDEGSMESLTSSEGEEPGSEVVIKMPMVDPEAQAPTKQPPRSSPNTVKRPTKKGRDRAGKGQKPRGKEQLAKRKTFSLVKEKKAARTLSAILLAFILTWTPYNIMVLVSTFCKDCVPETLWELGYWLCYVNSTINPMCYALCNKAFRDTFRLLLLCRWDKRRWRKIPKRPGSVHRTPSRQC

[3] = biological target: T2, Alpha-2A adrenergic receptor (Homo sapiens, UniProt P08913); type: functional, cell-based
T2 sequence (P08913 whole entry): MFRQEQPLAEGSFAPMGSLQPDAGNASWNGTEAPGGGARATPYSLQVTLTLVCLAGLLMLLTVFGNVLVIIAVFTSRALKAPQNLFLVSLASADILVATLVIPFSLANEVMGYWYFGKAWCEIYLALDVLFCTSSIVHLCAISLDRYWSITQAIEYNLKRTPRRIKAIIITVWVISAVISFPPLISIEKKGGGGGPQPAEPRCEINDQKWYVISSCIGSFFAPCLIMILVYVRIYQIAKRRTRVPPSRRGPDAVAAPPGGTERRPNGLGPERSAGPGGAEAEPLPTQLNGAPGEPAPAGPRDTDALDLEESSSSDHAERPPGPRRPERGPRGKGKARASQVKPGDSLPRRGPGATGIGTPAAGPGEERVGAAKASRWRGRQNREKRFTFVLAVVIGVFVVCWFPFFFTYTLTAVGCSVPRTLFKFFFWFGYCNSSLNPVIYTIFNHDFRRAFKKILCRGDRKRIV

[4] = biological target: T1, Muscarinic acetylcholine receptor M1; type: functional
[5] = biological target: T3, 5-hydroxytryptamine receptor 2C (Homo sapiens, UniProt P28335)
T3 sequence (P28335 whole entry): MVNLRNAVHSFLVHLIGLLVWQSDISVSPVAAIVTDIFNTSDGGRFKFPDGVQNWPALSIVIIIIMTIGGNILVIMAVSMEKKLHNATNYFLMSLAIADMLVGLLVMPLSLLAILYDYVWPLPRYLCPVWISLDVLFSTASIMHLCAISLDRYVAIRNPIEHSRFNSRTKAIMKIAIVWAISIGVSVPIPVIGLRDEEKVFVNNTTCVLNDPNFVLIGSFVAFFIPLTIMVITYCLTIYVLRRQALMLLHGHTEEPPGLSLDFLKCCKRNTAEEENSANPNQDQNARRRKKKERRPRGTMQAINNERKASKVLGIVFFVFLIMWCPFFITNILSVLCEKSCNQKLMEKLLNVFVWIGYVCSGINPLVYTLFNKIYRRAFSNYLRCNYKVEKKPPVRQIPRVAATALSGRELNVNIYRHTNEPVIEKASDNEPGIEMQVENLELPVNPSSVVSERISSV

Glucocorticoid receptor = biological target: T4, Glucocorticoid receptor (Homo sapiens, UniProt P04150)
T4 sequence (P04150 whole entry): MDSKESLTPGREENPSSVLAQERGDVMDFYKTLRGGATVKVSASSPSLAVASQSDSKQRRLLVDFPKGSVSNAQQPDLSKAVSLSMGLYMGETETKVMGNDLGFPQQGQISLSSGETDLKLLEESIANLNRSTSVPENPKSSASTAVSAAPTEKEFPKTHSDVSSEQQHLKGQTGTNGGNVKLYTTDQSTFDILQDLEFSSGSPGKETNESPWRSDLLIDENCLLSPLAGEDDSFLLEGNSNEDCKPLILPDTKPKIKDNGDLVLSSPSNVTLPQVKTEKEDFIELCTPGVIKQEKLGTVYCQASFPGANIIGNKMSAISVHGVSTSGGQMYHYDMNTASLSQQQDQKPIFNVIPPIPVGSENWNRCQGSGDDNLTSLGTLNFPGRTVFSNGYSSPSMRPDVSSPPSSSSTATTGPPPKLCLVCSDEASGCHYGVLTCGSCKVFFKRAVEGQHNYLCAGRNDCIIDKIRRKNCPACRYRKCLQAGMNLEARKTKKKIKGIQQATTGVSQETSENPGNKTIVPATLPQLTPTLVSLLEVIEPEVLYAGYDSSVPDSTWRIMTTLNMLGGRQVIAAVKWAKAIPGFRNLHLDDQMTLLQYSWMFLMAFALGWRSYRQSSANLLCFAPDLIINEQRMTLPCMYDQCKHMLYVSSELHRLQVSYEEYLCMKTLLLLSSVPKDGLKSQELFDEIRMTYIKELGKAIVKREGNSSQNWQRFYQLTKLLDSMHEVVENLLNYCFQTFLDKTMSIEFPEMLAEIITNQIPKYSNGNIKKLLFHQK

B2 bradykinin receptor = biological target: T5, B2 bradykinin receptor (Homo sapiens, UniProt P30411)
T5 sequence (P30411 whole entry): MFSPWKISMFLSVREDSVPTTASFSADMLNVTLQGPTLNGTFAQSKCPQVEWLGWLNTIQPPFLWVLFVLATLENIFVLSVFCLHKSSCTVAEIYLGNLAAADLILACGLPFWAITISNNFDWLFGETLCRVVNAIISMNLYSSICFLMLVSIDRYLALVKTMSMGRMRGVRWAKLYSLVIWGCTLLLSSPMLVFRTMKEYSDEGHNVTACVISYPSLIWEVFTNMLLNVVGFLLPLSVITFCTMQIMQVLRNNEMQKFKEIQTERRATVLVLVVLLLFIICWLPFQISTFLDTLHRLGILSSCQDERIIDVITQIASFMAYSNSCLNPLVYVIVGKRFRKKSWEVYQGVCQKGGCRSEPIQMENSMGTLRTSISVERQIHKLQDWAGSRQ
Also: assay procedure not described here.

Compound	AC50 [1] [µM]	AC50 [2] [µM]	other results
COc1nccnc1NS(=O)(=O)c1ccc(N)cc1	> 30	> 30	
O=C(Nc1cccc2c(=O)cc(-c3nnn[nH]3)oc12)c1ccc(OCCCCc2ccccc2)cc1		> 30	
NC(=O)c1nc(F)c[nH]c1=O		> 30	
CN(C)CCCN1C(=O)c2cc([N+](=O)[O-])ccc2Oc2ccccc21	> 30	> 30	
O=S(=O)(O)CCS [2-MERCAPTOETHANESULFONIC ACID]	> 30		
O=C(O)COc1nn(Cc2ccccc2)c2ccccc12 [BENDAZAC]	> 30	> 30	
Cc1ccc([C@@H]2O[C@H](CO)[C@@H](O)[C@H](O)[C@H]2O)cc1Cc1ccc(-c2ccc(F)cc2)s1 [CANAGLIFLOZIN ANHYDROUS]		> 30	
O=C(O)CCCc1ccc(N(CCCl)CCCl)cc1 [CHLORAMBUCIL]	22.1		
O=C(O)c1cc(=O)c2ccccc2o1 [CHROMOCARB]		> 30	
CN(CC(=O)O)C(=N)N [CREATINE]	> 30	> 30	
N[C@@H](CSSC[C@H](N)C(=O)O)C(=O)O [CYSTINE]		> 30	
Cn1c(=O)c2c(ncn2CC(O)CO)n(C)c1=O (centres undefined) [DYPHYLLINE]	> 30		
C#Cc1cccc(Nc2ncnc3cc(OCCOC)c(OCCOC)cc23)c1 [ERLOTINIB]	> 30		AC50 [3]: > 30 µM; AC50 [4]: > 30 µM; AC50 [5]: > 30 µM
C[C@]12CC[C@@H]3c4ccc(O)cc4CC[C@H]3[C@@H]1CC[C@@H]2OC(=O)CCC1CCCC1 [ESTRADIOL CYPIONATE]		> 30	
C[C@]12CCC(=O)C=C1CC[C@@H]1[C@@H]2[C@@H](O)C[C@@]2(C)[C@H]1CC[C@]2(O)C(=O)COC(=O)CCC(=O)O [HYDROCORTISONE HEMISUCCINATE ANHYDROUS]		> 30	
N=C(N)NCc1cccc([123I])c1 [IOBENGUANE I 123]		> 30	
CC(C)(N)C(=O)N[C@H](Cc1c[nH]c2ccccc12)C(=O)N[C@H](Cc1c[nH]c2ccccc12)NC=O [MACIMORELIN]		> 30	
C=C1c2c(Cl)ccc(O)c2C(=O)C2=C(O)[C@]3(O)C(=O)C(C(N)=O)=C(O)[C@@H](N(C)C)[C@@H]3[C@@H](O)[C@H]12 [MECLOCYCLINE]		> 30	
Cc1cc2c(OCC(O)CNC(C)C)cccc2[nH]1 (centres undefined) [MEPINDOLOL]	> 30	> 30	
CCCCCOc1ccc(-c2cc(-c3ccc(C(=O)N[C@H]4C[C@@H](O)[C@@H](O)NC(=O)[C@@H]5[C@@H](O)[C@@H](C)CN5C(=O)[C@H]([C@H](O)CC(N)=O)NC(=O)[C@H]([C@H](O)[C@@H](O)c5ccc(O)c(OS(=O)(=O)O)c5)NC(=O)[C@@H]5C[C@@H](O)CN5C(=O)[C@H]([C@@H](C)O)NC4=O)cc3)no2)cc1 [MICAFUNGIN] (X1-[Orn(4R-OH,5R-OH)]T[Hyp][hTyr(3S-OH,4S-OH,3'-OSO3H)][Gln(3R-OH)][Pro(3S-OH,4S-Me)]; lactam 1-C)		9.05	

Compound	AC50 [1] [µM]	AC50 [2] [µM]	other results
CCOc1cc(N)c(Cl)cc1C(=O)NCC1CN(Cc2ccc(F)cc2)CCO1 (centres undefined) [MOSAPRIDE]	> 30		
CCOc1ccc2ccccc2c1C(=O)N[C@@H]1C(=O)N2[C@@H]1SC(C)(C)[C@@H]2C(=O)O [NAFCILLIN]	> 30	> 30	
CN1CCC[C@H]1c1cccnc1 [NICOTINE]	> 30		
CN(C)c1cc(CNCC(C)(C)C)c(O)c2c1C[C@H]1C[C@H]3[C@H](N(C)C)C(O)=C(C(N)=O)C(=O)[C@@]3(O)C(O)=C1C2=O [OMADACYCLINE]			AC50 [3]: > 30 µM; AC50 (Glucocorticoid receptor): > 30 µM; AC50 [4]: 29 µM; AC50 [5]: > 30 µM; AC50 (B2 bradykinin receptor): > 30 µM
CCCCCCCCCCC[C@@H](C[C@@H]1OC(=O)[C@H]1CCCCCC)OC(=O)[C@H](CC(C)C)NC=O [ORLISTAT]	> 30	> 30	
O=C1[C@H]2CCCC[C@H]2C(=O)N1CCCCN1CCN(c2nsc3ccccc23)CC1 [PEROSPIRONE]	> 30	10.3	
CN(C)CCC(c1ccccc1)c1ccccn1 (centres undefined) [PHENIRAMINE]	> 30	> 30	
CNC[C@H](O)c1cccc(O)c1 [PHENYLEPHRINE]		> 30	AC50 [4]: > 10 µM; AC50 [5]: > 30 µM; AC50 (B2 bradykinin receptor): > 30 µM
CC(C)(C)C(=O)NCCCC(=O)O [PIVAGABINE]	> 30	> 30	
CC(C)C[C@H](CN)CC(=O)O [PREGABALIN]			AC50 [3]: > 30 µM; AC50 (Glucocorticoid receptor): > 30 µM; AC50 [4]: > 30 µM; AC50 [5]: > 30 µM; AC50 (B2 bradykinin receptor): > 30 µM
CC(C)[N+](C)(CCOC(=O)C1c2ccccc2Oc2ccccc21)C(C)C [PROPANTHELINE]	> 30	0.003	
O=C(Nc1c(Cl)cncc1Cl)c1ccc(OC(F)F)c(OCC2CC2)c1 [ROFLUMILAST]			AC50 [3]: > 30 µM; AC50 (Glucocorticoid receptor): > 30 µM; AC50 [4]: > 30 µM; AC50 [5]: > 30 µM; AC50 (B2 bradykinin receptor): > 30 µM
CCCN(CCC)CCc1cccc2c1CC(=O)N2 [ROPINIROLE]			AC50 [3]: 12 µM; AC50 (Glucocorticoid receptor): > 30 µM; AC50 [4]: > 30 µM; AC50 [5]: > 30 µM; AC50 (B2 bradykinin receptor): > 30 µM
CC(C)N(CCCCOCC(=O)NS(C)(=O)=O)c1cnc(-c2ccccc2)c(-c2ccccc2)n1 [SELEXIPAG]			AC50 [3]: > 30 µM; AC50 (Glucocorticoid receptor): > 30 µM; AC50 [4]: > 30 µM; AC50 [5]: > 30 µM; AC50 (B2 bradykinin receptor): > 10 µM
CCCCCCCCNC(C)C(O)c1ccc(SC(C)C)cc1 (centres undefined) [SULOCTIDIL]	> 10		
CC1(C)O[C@@H]2[C@@H](CO[C@@]3(COS(N)(=O)=O)OC(C)(C)O[C@@H]23)O1 [TOPIRAMATE]		> 30	AC50 [3]: > 10 µM; AC50 [4]: > 10 µM; AC50 [5]: > 30 µM; AC50 (B2 bradykinin receptor): > 30 µM
NCCc1ccc(O)cc1 [TYRAMINE]		> 30	
Cc1cc(CC(=O)O)n(C)c1C(=O)c1ccc(Cl)cc1 [ZOMEPIRAC]			AC50 [3]: > 30 µM; AC50 (Glucocorticoid receptor): > 30 µM; AC50 [4]: > 30 µM; AC50 [5]: > 30 µM; AC50 (B2 bradykinin receptor): > 30 µM
